Results published in PubChem BioAssay AID1963828 (Molecular Pharmacology Branch, DTP, NCI, 2024).

Test system: 991263-137-R1-J2-PDC complex spheroid viability
Assay: Anticancer human tumor 991263-137-R1-J2-PDC patient-derived colon adenocarcinoma cell line growth inhibition [POLQ]
Details: for IC50: curve of first compound; for viability, T/C: stronger effect = lower value
Summary of the method: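 Complex spheroid viability model combining PDC tumour cells with endothelial (HUVEC) and MSC stromal cells. Novobiocin, ART-558 or RP6685 were tested singly and in combination with standard and investigational anticancer drugs. Each was titrated in half-log steps from near clinical Cmax, or from 10 microM where Cmax was unknown.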

[1] = second compound 0.0316 µM, first compound 0.0316 µM
[2] = second compound 0.0316 µM, first compound 0.1 µM
[3] = second compound 0.0316 µM, first compound 0.316 µM
[4] = second compound 0.0316 µM, first compound 1 µM
[5] = second compound 0.0316 µM, first compound 3.16 µM
[6] = second compound 0.0316 µM, first compound 10 µM
[7] = second compound 0.1 µM, first compound 0.0316 µM
[8] = second compound 0.1 µM, first compound 0.1 µM
[9] = second compound 0.1 µM, first compound 0.316 µM
[10] = second compound 0.1 µM, first compound 1 µM
[11] = second compound 0.1 µM, first compound 3.16 µM
[12] = second compound 0.1 µM, first compound 10 µM
[13] = second compound 0.316 µM, first compound 0.0316 µM
[14] = second compound 0.316 µM, first compound 0.1 µM
[15] = second compound 0.316 µM, first compound 0.316 µM
[16] = second compound 0.316 µM, first compound 1 µM
[17] = second compound 0.316 µM, first compound 3.16 µM
[18] = second compound 0.316 µM, first compound 10 µM
[19] = second compound 1 µM, first compound 0.0316 µM
[20] = second compound 1 µM, first compound 0.1 µM
[21] = second compound 1 µM, first compound 0.316 µM
[22] = second compound 1 µM, first compound 1 µM
[23] = second compound 1 µM, first compound 3.16 µM
[24] = second compound 1 µM, first compound 10 µM
[25] = second compound 3.16 µM, first compound 0.0316 µM
[26] = second compound 3.16 µM, first compound 0.1 µM
[27] = second compound 3.16 µM, first compound 0.316 µM
[28] = second compound 3.16 µM, first compound 1 µM
[29] = second compound 3.16 µM, first compound 3.16 µM
[30] = second compound 3.16 µM, first compound 10 µM
[31] = second compound 10 µM, first compound 0.0316 µM
[32] = second compound 10 µM, first compound 0.1 µM
[33] = second compound 10 µM, first compound 0.316 µM
[34] = second compound 10 µM, first compound 1 µM
[35] = second compound 10 µM, first compound 3.16 µM
[36] = second compound 10 µM, first compound 10 µM
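Note: spheroids exposed to compounds for 7 days before readout.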
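Throughout, for viability, T/C: 100% = DMSO vehicle control viability.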

Compound `CNCc1ccc(-c2[nH]c3cc(F)cc4c3c2CCNC4=O)cc1` + Nc1ccc(C#CCN(C(=O)Cc2ncc(C(F)(F)F)cc2C(F)(F)F)c2ccc(F)cc2)nn1 has an IC50 (second compound 0.0316 µM) greater than 10 µM, an IC50 (second compound 0.1 µM) greater than 10 µM and an IC50 (second compound 0.316 µM) greater than 10 µM. For the same compound, the IC50 (second compound 1 µM) was greater than 10 µM, the IC50 (second compound 3.16 µM) was greater than 10 µM and the IC50 (second compound 10 µM) was greater than 10 µM. It also gave a viability, T/C [1] of 98.4%, a viability, T/C [2] of 91.8% and a viability, T/C [3] of 98.2%. For the same compound, the viability, T/C [4] was 93.4%, the viability, T/C [5] was 97.7% and the viability, T/C [6] was 117%. The viability, T/C [7] was 112%, the viability, T/C [8] was 99.5% and the viability, T/C [9] was 114%. For the same compound, the viability, T/C [10] was 95.1%, the viability, T/C [11] was 110% and the viability, T/C [12] was 108%. It also gave a viability, T/C [13] of 104%, a viability, T/C [14] of 97.2% and a viability, T/C [15] of 96.3%. It also gave a viability, T/C [16] of 101%, a viability, T/C [17] of 93.2% and a viability, T/C [18] of 119%. It also gave a viability, T/C [19] of 99.2%, a viability, T/C [20] of 90.1% and a viability, T/C [21] of 93%. It also gave a viability, T/C [22] of 97%, a viability, T/C [23] of 106% and a viability, T/C [24] of 106%. For the same compound, the viability, T/C [25] was 94.5%, the viability, T/C [26] was 98% and the viability, T/C [27] was 103%. The viability, T/C [28] was 99.7%, the viability, T/C [29] was 97.1% and the viability, T/C [30] was 100%. For the same compound, the viability, T/C [31] was 88.1%, the viability, T/C [32] was 97.5% and the viability, T/C [33] was 99.3%. For the same compound, the viability, T/C [34] was 94.5%, the viability, T/C [35] was 103% and the viability, T/C [36] was 109%.

In the case of `COc1cccc(OCCCN)c1-c1cc(Nc2cnc(C#N)cn2)n[nH]1` + Nc1ccc(C#CCN(C(=O)Cc2ncc(C(F)(F)F)cc2C(F)(F)F)c2ccc(F)cc2)nn1, the IC50 (second compound 0.0316 µM) is reported as 0.718 µM, the IC50 (second compound 0.1 µM) is reported as 0.587 µM and the IC50 (second compound 0.316 µM) is reported as 0.666 µM. It also gave an IC50 (second compound 1 µM) of 0.728 µM, an IC50 (second compound 3.16 µM) of 0.425 µM and an IC50 (second compound 10 µM) of 0.0874 µM. It also gave a viability, T/C (second compound 0.0316 µM, first compound 0.00316 µM) of 114%, a viability, T/C (second compound 0.0316 µM, first compound 0.01 µM) of 89.4% and a viability, T/C [1] of 105%. It also gave a viability, T/C [2] of 83.4%, a viability, T/C [3] of 55.9% and a viability, T/C [4] of 47.5%. For the same compound, the viability, T/C (second compound 0.1 µM, first compound 0.00316 µM) was 104%, the viability, T/C (second compound 0.1 µM, first compound 0.01 µM) was 105% and the viability, T/C [7] was 100%. It also gave a viability, T/C [8] of 82.8%, a viability, T/C [9] of 57.8% and a viability, T/C [10] of 43.5%. The viability, T/C (second compound 0.316 µM, first compound 0.00316 µM) was 102%, the viability, T/C (second compound 0.316 µM, first compound 0.01 µM) was 106% and the viability, T/C [13] was 103%. For the same compound, the viability, T/C [14] was 85.1%, the viability, T/C [15] was 67.9% and the viability, T/C [16] was 40.7%. For the same compound, the viability, T/C (second compound 1 µM, first compound 0.00316 µM) was 106%, the viability, T/C (second compound 1 µM, first compound 0.01 µM) was 95.2% and the viability, T/C [19] was 89.4%. The viability, T/C [20] was 80.9%, the viability, T/C [21] was 70.5% and the viability, T/C [22] was 42%. The viability, T/C (second compound 3.16 µM, first compound 0.00316 µM) was 102%, the viability, T/C (second compound 3.16 µM, first compound 0.01 µM) was 93.2% and the viability, T/C [25] was 83.4%. The viability, T/C [26] was 70.4%, the viability, T/C [27] was 51.5% and the viability, T/C [28] was 41.4%. The viability, T/C (second compound 10 µM, first compound 0.00316 µM) was 93.3%, the viability, T/C (second compound 10 µM, first compound 0.01 µM) was 96.5% and the viability, T/C [31] was 73%. The viability, T/C [32] was 46.8%, the viability, T/C [33] was 49.9% and the viability, T/C [34] was 44.2%.

Work on `O=C(c1cc(Cc2n[nH]c(=O)c3ccccc23)ccc1F)N1CCN(C(=O)C2CC2)CC1` + Nc1ccc(C#CCN(C(=O)Cc2ncc(C(F)(F)F)cc2C(F)(F)F)c2ccc(F)cc2)nn1 yielded an IC50 (second compound 0.0316 µM) greater than 10 µM, an IC50 (second compound 0.1 µM) greater than 10 µM and an IC50 (second compound 0.316 µM) greater than 10 µM. The IC50 (second compound 1 µM) was greater than 10 µM, the IC50 (second compound 3.16 µM) was greater than 10 µM and the IC50 (second compound 10 µM) was greater than 10 µM. For the same compound, the viability, T/C [1] was 105%, the viability, T/C [2] was 101% and the viability, T/C [3] was 90.1%. For the same compound, the viability, T/C [4] was 98.5%, the viability, T/C [5] was 98.2% and the viability, T/C [6] was 99.8%. It also gave a viability, T/C [7] of 101%, a viability, T/C [8] of 97.4% and a viability, T/C [9] of 90.3%. It also gave a viability, T/C [10] of 96.1%, a viability, T/C [11] of 110% and a viability, T/C [12] of 90%. The viability, T/C [13] was 106%, the viability, T/C [14] was 104% and the viability, T/C [15] was 93.8%. For the same compound, the viability, T/C [16] was 97%, the viability, T/C [17] was 101% and the viability, T/C [18] was 97.2%. The viability, T/C [19] was 104%, the viability, T/C [20] was 96.1% and the viability, T/C [21] was 94.3%. For the same compound, the viability, T/C [22] was 90.3%, the viability, T/C [23] was 105% and the viability, T/C [24] was 90.4%. For the same compound, the viability, T/C [25] was 103%, the viability, T/C [26] was 103% and the viability, T/C [27] was 95.4%. The viability, T/C [28] was 100%, the viability, T/C [29] was 105% and the viability, T/C [30] was 105%. The viability, T/C [31] was 95.5%, the viability, T/C [32] was 93.6% and the viability, T/C [33] was 104%. For the same compound, the viability, T/C [34] was 96.7%, the viability, T/C [35] was 97.1% and the viability, T/C [36] was 102%.
